Entries after “also recorded” stand apart in the source; their conditions may differ. Where a SMILES comes first, the peptide text is derived from it.
Tests used:
[1] = test system: pig lung; assay: Pig lung EVLP with GlutaMax-modified Steen solution; conditions: for lung function: compared with historical controls
Description: Methods: Human pulmonary microvascular endothelial cells (HPMEC) and human lung epithelial cells (BEAS-2B) were used to determine the effects of Steen solution components on basic cellular function. Cell confluence, apoptosis and migration were visualized and quantified by IncuCyte® Live Cell Analysis System in real-time. A simulated EVLP cell culture model was established by replacing regular culture medium with cold lung preservation solution and followed by “perfusion” with normothermic Steen solution or its modifications. Cell apoptosis was quantified. Porcine lung EVLP was performed using Steen solution with added nutrients. […] During the experiment, EVLP was extended as long as the dynamic lung compliance was greater than 15 ml/cmH2O. […] Pig lungs were preserved at 4° C. followed by EVLP. […] Lung function assessment: Perfusate was sampled regularly. PO2, PCO2, pH, Na^+, K^+, Ca^2+, Cl^−, glucose and lactate were determined via a blood gas analyzer (see FIG. 17; Table 3). Pulmonary function was monitored continuously and assessed every hour, including static and dynamic compliances, peak airway inspiratory pressure, pulmonary artery pressure and pulmonary vascular resistance (PVR). Lung tissue biopsies were collected before, during and at the end of EVLP. Lung wet-to-dry ratio was measured as an indicator of lung edema.

[2] = pH of Steen solution after addition of nutrients; format: physicochemical; conditions: nutrient added to Steen solution (GlutaMax at 4 mM; amino acids at clinically recommended concentrations)
Procedure: Amino acids are essential nutrients for cell proliferation. In rat lungs, the lack of amino acids and insulin in perfusate reduced protein synthesis, while vitamin C prolonged the viability and stability of perfused rat lungs by slowing the decline of mitochondrial activity. Therefore, clinically recommended concentrations of amino acids and/or vitamins were added in Steen solution to improve its performance.

[3] = test system: human lung epithelial cells (BEAS-2B); assay: Basic cellular function of cells exposed to Steen solution and its modifications (IncuCyte Live Cell Analysis); format: cell-based; conditions: for apoptosis / cell migration: GlutaMax added at 4 mM to Steen solution, vs Steen solution
Description: (§1) Methods: Human pulmonary microvascular endothelial cells (HPMEC) and human lung epithelial cells (BEAS-2B) were used to determine the effects of Steen solution components on basic cellular function. Cell confluence, apoptosis and migration were visualized and quantified by IncuCyte® Live Cell Analysis System in real-time. A simulated EVLP cell culture model was established by replacing regular culture medium with cold lung preservation solution and followed by “perfusion” with normothermic Steen solution or its modifications. Cell apoptosis was quantified. Porcine lung EVLP was performed using Steen solution with added nutrients.
(§2) The effects of glutamine in Steen solution on mitochondrial respiration and glycolytic function were examined using a Seahorse XFe analyzer.

[4] = test system: human pulmonary microvascular endothelial cells (HPMEC); assay: as above; format: cell-based; conditions: for apoptosis / cell migration: GlutaMax added at 4 mM to Steen solution, vs Steen solution
Description: as §1, §2

[5] = test system: IL-8; assay: IL-8 production in simulated EVLP cell culture model; format: cell-based, human; conditions: prolonged CIT (18 h) and simulated EVLP (12 h)
Procedure: A cell culture model was developed that simulates hypothermic lung preservation and reperfusion and was used to “perfuse” cells with EVLP perfusate, as shown in FIG. 6A. Culture medium of confluent cells was replaced with 4° C. lung preservation solution (Perfadex®) for 6 h or 18 h, and then “perfused” with Steen solution with and without GlutaMax.

[6] = test system: BEAS-2B; assay: Simulated EVLP cell culture model (cold Perfadex preservation, then perfusion with Steen solution with and without GlutaMax); format: cell-based, human; conditions: for total GSH production: fluorometric assay kit; for apoptosis: GlutaMax 0.5 mM to 4 mM in Steen solution, after 6 h or 18 h cold preservation, simulated EVLP
Description: (§3) Methods: Human pulmonary microvascular endothelial cells (HPMEC) and human lung epithelial cells (BEAS-2B) were used to determine the effects of Steen solution components on basic cellular function. Cell confluence, apoptosis and migration were visualized and quantified by IncuCyte® Live Cell Analysis System in real-time. A simulated EVLP cell culture model was established by replacing regular culture medium with cold lung preservation solution and followed by “perfusion” with normothermic Steen solution or its modifications. Cell apoptosis was quantified. Porcine lung EVLP was performed using Steen solution with added nutrients. A cell culture model was developed that simulates hypothermic lung preservation and reperfusion and was used to “perfuse” cells with EVLP perfusate, as shown in FIG. 6A. Culture medium of confluent cells was replaced with 4° C. lung preservation solution (Perfadex®) for 6 h or 18 h, and then “perfused” with Steen solution with and without GlutaMax. […] Human lung endothelial and epithelial cells were subjected to simulated EVLP treated with Steen solution with and without GlutaMax. GSH concentration in cell culture was measured with a fluorometric assay kit from BioVision.

[7] = test system: HPMEC; assay: as above; format: cell-based, human; conditions: for total GSH production: fluorometric assay kit; for apoptosis: GlutaMax 0.5 mM to 4 mM in Steen solution, after 6 h or 18 h cold preservation, simulated EVLP
Description: as §3

[8] = pig lung EVLP, first 18 h, compared with historical control
[9] = CIT 6 h and EVLP 4 h, listed as GlutaMAX
[10] = different concentrations of Albumin (1, 2, 4, 7%) and Dextran 40 (5, 25, 50 g/L) in Steen solution

C[C@H](N)C(=O)N[C@@H](CCC(N)=O)C(=O)O [GlutaMax, L-alanyl-L-glutamine] (H-Ala-Gln-OH)
lung function ([1]; pig lung EVLP): improved lung function | lung function ([1]; pig lung EVLP, listed as gln): stable lung function | delta PO2 [1, 8]: higher | dynamic compliance [1, 8]: higher | peak airway pressure [1, 8]: lower | EVLP period ([1]; pig lung EVLP, gln added to Steen solution): significantly extend | EVLP duration reached ([1]; pig lung, EVLP extended as long as dynamic lung compliance greater than 15 ml/cmH2O): 36 h | pH [2]: maintained in the physiological range | apoptosis [3]: reduced apoptosis | cell migration [3]: improved cell migration | apoptosis ([3]; listed as L-alanyl-L-glutamine): significantly inhibited cell apoptosis | cell migration ([3]; listed as L-alanyl-L-glutamine): improved cell migration | apoptosis [4]: reduced apoptosis | cell migration [4]: improved cell migration | apoptosis ([4]; listed as L-alanyl-L-glutamine): significantly inhibited cell apoptosis | cell migration ([4]; listed as L-alanyl-L-glutamine): improved cell migration | IL-8 production [5]: inhibited IL-8 production | HSP70 production (protein expression in cell lysates) ([6]; CIT 6 h and EVLP 4 h): promoted HSP70 production; also recorded: enhanced HSP70 production | total GSH production ([6]; CIT 6 h and EVLP 4 h): enhanced total GSH production | total GSH production [6, 9]: enhanced Total GSH production | apoptosis [6]: reduced apoptosis | apoptosis ([6]; listed as Glutamax): reduced apoptosis | apoptosis ([6]; listed as gln): significantly reduced apoptosis | HSP70 production (protein expression in cell lysates) ([7]; CIT 6 h and EVLP 4 h): promoted HSP70 production; also recorded: enhanced HSP70 production | total GSH production ([7]; CIT 6 h and EVLP 4 h): enhanced total GSH production | total GSH production [7, 9]: enhanced Total GSH production | apoptosis [7]: reduced apoptosis | apoptosis ([7]; listed as Glutamax): reduced apoptosis | apoptosis ([7]; listed as gln): significantly reduced apoptosis

Dextran 40
cell confluence, apoptosis and migration [3, 10]: no major differences | cell confluence, apoptosis and migration [4, 10]: no major differences

— patent publication US20230148588A1, “METHODS, COMPOSITIONS, AND SYSTEMS FOR ENHANCING EX-VIVO ORGAN PERFUSION” (University Health Network, priority 2020, published 2023)
